This is an account of results in patent publication US20080213376A1, “Medicament that is Intended for Oral Administration, Comprising a Cyclooxygenase-2 Inhibitor, and Preparation Method Thereof” (VETOQUINOL, priority 2005, published 2008).

The nature of this series: Solubility by HPLC in approximately 0.1N HCl medium. The note with it: simulated gastric fluid, thermodynamic from solid, HPLC technique. The class given is physicochemical. The method, then:
By way of indication, the solubility S0 of the cimicoxib powder alone and the solubility S2 of the particle agglomerate according to this second example of the invention were measured by the HPLC (high performance liquid chromatography) technique and in an approximately 0.1N HCl medium, with the following results (solubilities in milligrams/liter):
By way of indication, the solubility S5 of this particle agglomerate according to this fifth example of the invention was compared to the solubility S0 of the cimicoxib powder alone by the HPLC technique and in an approximately 0.1N HCl medium, with the following results (milligrams/liter): […]

≈ marks a conversion by molar mass, not a printed value.

The solubility is the dissolved amount per volume that the medium holds.

`COc1ccc(-c2c(Cl)ncn2-c2ccc(S(N)(=O)=O)cc2)cc1F` [cimicoxib powder alone, cimicoxib]: the concentration in solution (solubility) was 3.1 µg/mL (≈ 8.12 µM).
